Drawing on PubChem BioAssay AID330 (DTP/NCI, 2004), this text covers T/C for 23 molecules.

This assay concerns P388 leukemia ip, CD2F1 mice, survival T/C. Nature of the assay: NCI In Vivo Anticancer Drug Screen. Data for tumor model P388 Leukemia (intraperitoneal) in CD2F1 (CDF1) mice. Conditions: endpoint: median survival time, higher = longer survival. A digest of the protocol:
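Mice carrying the transplanted tumor received test compound or vehicle. Survival was recorded in each group, and the value is the treated-group measurement divided by that of the vehicle-treated control group.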

Where [1] appears, read: dose: 25.0 mg/kg/injection, schedule: Q01DX005 (ip), vehicle: saline.
[2] abbreviates: dose: 50.0 mg/kg/injection, schedule: Q01DX005 (ip), vehicle: saline.
Setting [3] is: dose: 60.0 mg/kg/injection, schedule: Q01DX005 (ip), vehicle: saline with Tween-80.
The mark [4] stands for this setting: dose: 120.0 mg/kg/injection, schedule: Q01DX005 (ip), vehicle: saline with Tween-80.
[5] abbreviates: dose: 100.0 mg/kg/injection, schedule: Q01DX005 (ip), vehicle: saline.
[6] abbreviates: dose: 240.0 mg/kg/injection, schedule: Q01DX005 (ip), vehicle: saline with Tween-80.
Where [7] appears, read: dose: 60.0 mg/kg/injection, schedule: Q01DX005 (ip), vehicle: Klucel (hydroxypropylcellulose) (HPC).
Where [8] appears, read: dose: 50.0 mg/kg/injection, schedule: Q01DX005 (ip), vehicle: saline with Tween-80.
The mark [9] stands for this setting: dose: 100.0 mg/kg/injection, schedule: Q01DX005 (ip), vehicle: saline with Tween-80.
Where [10] appears, read: dose: 200.0 mg/kg/injection, schedule: Q01DX005 (ip), vehicle: saline with Tween-80.
[11] abbreviates: dose: 12.5 mg/kg/injection, schedule: Q01DX009 (ip), vehicle: saline.
Where [12] appears, read: dose: 25.0 mg/kg/injection, schedule: Q01DX009 (ip), vehicle: saline.

Values joined by “and” are separate entries in the source; they are usually repeats but may differ in a detail not shown here. Identical values can stand only once. Inconclusive results and toxic doses are left out.

Take `CCOC(=O)C1=C(C(C)=O)C(c2ccccc2[N+](=O)[O-])C(C(C)=O)=C(C(=O)OCC)N1`: the T/C reads like this: (dose: 60.0 mg/kg/injection, schedule: Q01DX005 (ip), vehicle: saline) 104 % of control; (dose: 120.0 mg/kg/injection, schedule: Q01DX005 (ip), vehicle: saline) 105 % of control; (dose: 240.0 mg/kg/injection, schedule: Q01DX005 (ip), vehicle: saline) 96 % of control.
Regarding `[Ni].c1c[nH]cn1.c1c[nH]cn1.c1c[nH]cn1.c1c[nH]cn1.c1c[nH]cn1.c1c[nH]cn1`, the T/C (dose: 6.25 mg/kg/injection, schedule: Q01DX005 (ip), vehicle: saline) is 92 % of control; the T/C (dose: 12.5 mg/kg/injection, schedule: Q01DX005 (ip), vehicle: saline) is 86 % of control; the T/C under setting [1] was 87 % of control; the T/C under setting [2] was 100 % of control.
As for `CC(=O)ON(C(=O)c1ccc([N+](=O)[O-])cc1)c1ccc(C=O)cc1`, the T/C runs as follows: (dose: 100.0 mg/kg/injection, schedule: Q01DX001 (ip), vehicle: saline with Tween-80) 102 % of control; (dose: 200.0 mg/kg/injection, schedule: Q01DX001 (ip), vehicle: saline with Tween-80) 101 % of control.
For the molecule `C=CCN(CC=C)CCN1CCN(CCCN2c3ccccc3Sc3ccc(C(F)(F)F)cc32)CC1`, the T/C is, setting by setting: (dose: 12.5 mg/kg/injection, schedule: Q04DX003 (ip), vehicle: saline) 101 % of control and 103 % of control; (dose: 25.0 mg/kg/injection, schedule: Q04DX003 (ip), vehicle: saline) 111 % of control and 112 % of control; (dose: 50.0 mg/kg/injection, schedule: Q04DX003 (ip), vehicle: saline) 104 % of control and 107 % of control; (dose: 100.0 mg/kg/injection, schedule: Q04DX003 (ip), vehicle: saline) 100 % of control and 102 % of control.
Regarding `O=S1(=O)C2CCC(Br)C1CCC2Br` (configuration not stated), the T/C runs as follows: (dose: 1.56 mg/kg/injection, schedule: Q01DX005 (ip), vehicle: Klucel (hydroxypropylcellulose) (HPC)) 99 % of control; (dose: 3.12 mg/kg/injection, schedule: Q01DX005 (ip), vehicle: Klucel (hydroxypropylcellulose) (HPC)) 103 % of control; (dose: 6.25 mg/kg/injection, schedule: Q01DX005 (ip), vehicle: Klucel (hydroxypropylcellulose) (HPC)) 100 % of control.
As for `Cc1nc2cc(N)c(Cl)cc2[nH]1`, the T/C reads like this: under setting [3], 104 % of control; under setting [4], 107 % of control.
Consider `Cc1ccc([B-]23OCC[N+]2(CNC(=O)C2=C(O)C4(O)C(=O)C5=C(O)c6c(O)cccc6C(C)(O)C5CC4C(N(C)C)C2=O)CCO3)cc1` (configuration not stated), for which the T/C is 108 % of control (dose: 50.0 mg/kg/injection, schedule: Q01DX005 (ip), vehicle: Klucel (hydroxypropylcellulose) (HPC)); 108 % of control (dose: 100.0 mg/kg/injection, schedule: Q01DX005 (ip), vehicle: Klucel (hydroxypropylcellulose) (HPC)); 113 % of control (dose: 200.0 mg/kg/injection, schedule: Q01DX005 (ip), vehicle: Klucel (hydroxypropylcellulose) (HPC)).
With `O=C1NC(=O)C2(O)NC(=O)NC2(O)N1` (configuration not stated), the T/C reads like this: under setting [1], 100 % of control; under setting [2], 106 % of control; under setting [5], 101 % of control; (dose: 200.0 mg/kg/injection, schedule: Q01DX005 (ip), vehicle: saline) 116 % of control; (dose: 400.0 mg/kg/injection, schedule: Q01DX005 (ip), vehicle: saline) 116 % of control.
`CC(=O)Nc1cc2cc(NC=C(C#N)C#N)ccc2oc1=O`: the T/C was 96 % of control (dose: 60.0 mg/kg/injection, schedule: Q01DX005 (ip), vehicle: Klucel + Tween-80) and 92 % of control (dose: 120.0 mg/kg/injection, schedule: Q01DX005 (ip), vehicle: Klucel + Tween-80).
Regarding `Cc1nc2ccccc2c(=O)n1-c1nc2ccccc2s1`, the T/C was 92 % of control under setting [3]; 89 % of control and 90 % of control under setting [4]; 103 % of control under setting [6].
For the molecule `Cn1cc(N=P(c2ccccc2)(c2ccccc2)c2ccccc2)c(=O)n(C)c1=O`, the T/C runs as follows: (dose: 15.0 mg/kg/injection, schedule: Q01DX005 (ip), vehicle: Klucel (hydroxypropylcellulose) (HPC)) 114 % of control; (dose: 30.0 mg/kg/injection, schedule: Q01DX005 (ip), vehicle: Klucel (hydroxypropylcellulose) (HPC)) 105 % of control; under setting [7], 107 % of control.
Regarding `Clc1ccc(C[P+](c2ccccc2)(c2ccccc2)c2ccccc2)c(Cl)c1`, the T/C (dose: 1.25 mg/kg/injection, schedule: Q01DX009 (ip), vehicle: saline sonified) was 109 % of control; the T/C (dose: 2.5 mg/kg/injection, schedule: Q01DX009 (ip), vehicle: saline sonified) is 109 % of control; the T/C (dose: 5.0 mg/kg/injection, schedule: Q01DX009 (ip), vehicle: saline sonified) was 118 % of control.
With `CC(C)CN1CC(=O)N2Cc3ccccc3CN2C(=O)C1`, the T/C is, setting by setting: under setting [8], 101 % of control; under setting [9], 106 % of control; under setting [10], 103 % of control.
On to `CN(C)CCC1c2ccc(Cl)cc2CCc2cccnc21` (configuration not stated) (tested in a mixture with another compound), for which the T/C is 107 % of control under setting [2] and 99 % of control under setting [5].
In the case of `CCCCCC(CN(C)C)C(O)/C=C/c1ccc(Cl)cc1Cl` (configuration not stated), the T/C is 108 % of control under setting [11]; 100 % of control under setting [12]; 99 % of control (dose: 50.0 mg/kg/injection, schedule: Q01DX009 (ip), vehicle: saline).
For `CN1CC2CN(C)CC(C1)C2(O)c1ccccc1` (configuration not stated), the T/C is, setting by setting: under setting [11], 97 % of control; under setting [12], 98 % of control.
On to `CNc1nc(N)nc(N)c1N1CCN(c2ccc(C(=O)O)cc2)CC1`, for which the T/C reads like this: under setting [7], 91 % of control; (dose: 120.0 mg/kg/injection, schedule: Q01DX005 (ip), vehicle: Klucel (hydroxypropylcellulose) (HPC)) 93 % of control; (dose: 240.0 mg/kg/injection, schedule: Q01DX005 (ip), vehicle: Klucel (hydroxypropylcellulose) (HPC)) 87 % of control.
Regarding `COc1cc2cc[n+]3cc4c(ccc5ccccc54)cc3c2cc1OC`, the T/C is, setting by setting: (dose: 6.25 mg/kg/injection, schedule: Q04DX003 (ip), vehicle: distilled water + Tween-80) 166 % of control; (dose: 12.5 mg/kg/injection, schedule: Q04DX003 (ip), vehicle: distilled water + Tween-80) 158 % of control; (dose: 12.5 mg/kg/injection, schedule: Q04DX003 (ip), vehicle: water) 152 % of control; (dose: 25.0 mg/kg/injection, schedule: Q04DX003 (ip), vehicle: distilled water + Tween-80) 177 % of control.
As to `CCOC(=O)NC(N)=O`, the T/C was 91 % of control (dose: 50.0 mg/kg/injection, schedule: Q01DX009 (ip), vehicle: saline with Tween-80); 89 % of control (dose: 100.0 mg/kg/injection, schedule: Q01DX009 (ip), vehicle: saline with Tween-80); 89 % of control (dose: 200.0 mg/kg/injection, schedule: Q01DX009 (ip), vehicle: saline with Tween-80); 97 % of control (dose: 400.0 mg/kg/injection, schedule: Q01DX009 (ip), vehicle: saline with Tween-80).
Consider `Cc1ccc(CC2CC(=O)NC2=O)cc1` (configuration not stated), for which the T/C was 105 % of control under setting [3], 93 % of control under setting [4] and 96 % of control under setting [6].
`CCOC(=O)c1[nH]cnc1N`: the T/C is, setting by setting: (dose: 15.0 mg/kg/injection, schedule: Q01DX005 (ip), vehicle: saline with Tween-80) 104 % of control; (dose: 30.0 mg/kg/injection, schedule: Q01DX005 (ip), vehicle: saline with Tween-80) 101 % of control; under setting [3], 104 % of control and 106 % of control; under setting [4], 100 % of control; under setting [6], 104 % of control.
As to `c1ccc(C23OOC(c4ccccc4)(c4ccccc42)c2ccccc23)cc1`, the T/C reads like this: (dose: 5.0 mg/kg/injection, schedule: Q01DX001 (ip), vehicle: Klucel (hydroxypropylcellulose) (HPC)) 96 % of control; (dose: 10.0 mg/kg/injection, schedule: Q01DX001 (ip), vehicle: Klucel (hydroxypropylcellulose) (HPC)) 96 % of control; (dose: 20.0 mg/kg/injection, schedule: Q01DX001 (ip), vehicle: Klucel (hydroxypropylcellulose) (HPC)) 89 % of control.
Turning to `COC(=O)C(Cc1c[nH]c2ccccc12)NC(=O)C(Cc1cnc[nH]1)N(C(=O)OCc1ccccc1)C(=O)OCc1ccccc1` (configuration not stated), the T/C under setting [8] was 100 % of control, the T/C under setting [9] is 89 % of control and the T/C under setting [10] was 98 % of control.
